Results published in patent US20140227357A1, “FILL FORMULATIONS AND CAPSULES AND METHOD OF USE TO AVOID MIGRATION OF FILL INTO OR THROUGH THE SHELL” (CAPSUGEL BELGIUM NV, priority 2011, published 2014).

Assay: Technical batch stability study, 2-butanol and 2-pentanone assay by gas chromatography
Format: physicochemical
Conditions: in Formulation 4, sealed LICAPS

CCCC(C)=O [Formulation 2-pentanone, 2-pentanone]
assay, % label claim (6 months at 25° C./60% RH in PET/Alu/PE bags): 100.3% | assay, % label claim (6 months at 40° C./75% RH in PET/Alu/PE bags): 99.8%
